Test results as given in US20160272622A1, “TETRAZOLINONE COMPOUND AND USE THEREOF” (SUMITOMO CHEMICAL COMPANY, LIMITED, priority 2013, published 2016).

Key:
Assay type in all cases: in vivo
[1] = test system: barley net blotch fungus (Pyrenophora teres); assay: Barley net blotch control test, foliar spray before inoculation; conditions: 500 ppm sprayed on barley (NISHINOHOSHI); inoculated 2 days after spraying
Method: (§1) The control effect was evaluated by visually observing the area of lesion on each of test plants at the time of investigation, and comparing the area of lesion spots on a plant treated with the present compound with that on an untreated plant.
Each of plastic pots was filled with soil and barley (cultivar: NISHINOHOSHI) was sowed and grown in a greenhouse for 7 days. Then, each water dilution prepared by adjusting so as to contain a predetermined concentration (500 ppm) of any one compound of the present compounds 1, and 3 to 16 was sprayed over stems and leaves of the barley so that it sufficiently adhered to the surface of the leaves of the barley. After spraying, the plant was air-dried. After 2 days, an aqueous suspension containing spores of barley net blotch fungus (Pyrenophora teres) was sprayed to inoculate the spores. After completion of the inoculation, the plant was placed for 3 days in a greenhouse at 23° C. in the daytime and 20° C. at night under high humidity condition and cultivated in a greenhouse for 7 days, and then the area of lesion was investigated. As a result, the area of lesion on the plant treated with the present compound(s) 1, or 3 to 16 was 30% or less of that on an untreated plant.

[2] = test system: wheat leaf blotch fungus (Septoria tritici); assay: Wheat leaf blotch control test, spray after inoculation; conditions: 50 ppm sprayed on wheat (APOGEE) 3 days after inoculation
[3] = test system: target spot fungus (Corynespora cassiicola); assay: Cucumber target spot control test, foliar spray before inoculation; conditions: 200 ppm sprayed on cucumber (SAGAMI HANJIRO); inoculated one day after spraying; 7 days
Method: as §1
Each of plastic pots was filled with soil and cucumber (cultivar: SAGAMI HANJIRO) was sowed and grown in a greenhouse for 19 days. Then, each water dilution prepared by adjusting so as to contain a predetermined concentration (200 ppm) of the present compound 6 was sprayed over stems and leaves of the cucumber so that it sufficiently adhered to the surface of the leaves of the cucumber. After spraying, the plant was air-dried. After one day, an aqueous suspension containing spores of target spot fungus […]. After the inoculation, the plant was cultivated in a greenhouse at 24° C. in the daytime and 20° C. at night for 7 days, and then the area of lesion was investigated. As a result, the area of lesion on the plant treated with the present compound 6 was 30% or less of that on an untreated plant.

[4] = test system: wheat rust fungus (Puccinia recondita); assay: Wheat rust control test, foliar spray before inoculation; conditions: 200 ppm sprayed on wheat (SHIROGANE); inoculated 5 days after spraying
Method: as §1
Each of plastic pots was filled with soil and wheat (cultivar: SHIROGANE) was sowed and grown in a greenhouse for 9 days. Then, each water dilution prepared by adjusting so as to contain a predetermined concentration (200 ppm) of any one compound of the present compounds 12, and 14 to 16 was sprayed over stems and leaves of the wheat so that it sufficiently adhered to the surface of the leaves of the wheat. After spraying, the plant was air-dried and cultivated at 20° C. for 5 days under illumination, and then inoculated by sprinkling with spores of wheat rust fungus (Puccinia recondita). After the inoculation, the plant was placed at 23° C. for one day under dark and high humidity condition, and cultivated under illumination at 20° C. for 8 days, and then the area of lesion was investigated.

[5] = test system: cotton aphid (Aphis gossypii); assay: Cotton aphid control test on sprayed cucumber; conditions: 500 ppm, 20 mL sprayed on cucumber; adults and larvae; after 6 days
Method: Thirty (30) heads of cotton aphid (Aphis gossypii) (including adults and larvae) were released on the leaves of cucumber (cultivar: SAGAMI HANJIRO FUSHINARI) grown in a polyethylene cup until the first true leaf was developed. Next day, 20 mL of the test chemical solution was sprayed.
Control value (%)={1−(Cb×Tai)/(Cai×Tb)}×100
wherein symbols in the equation represent the followings: […]
Cb: Number of insects before spraying chemical solution in untreated area;
Cai: Number of surviving insects in untreated area;
Tb: Number of insects before spraying chemical solution in treated area; and
Tai: Number of surviving insects in treated area.

Cn1nnn(-c2cnn(C(C)(C)C)c2COc2ccn(-c3ccc(Cl)cc3)n2)c1=O [present compound 1, 1-(1-tert-butyl-5-{[1-(4-chlorophenyl)-1H-pyrazol-3-yl]oxymethyl}-1H-pyrazol-4-yl)-4-methyl-1,4-dihydrotetrazol-5-one]
area of lesion on treated plant relative to that on an untreated plant [1]: ≤ 30%

Cn1nnn(-c2cnn(C(C)(C)C)c2COc2nc(-c3ccc(Cl)cc3)cs2)c1=O [present compound 3]
area of lesion on treated plant relative to that on an untreated plant [2]: ≤ 30%

Cn1nnn(-c2cccnc2COc2ccn(-c3ccc(Cl)cc3)n2)c1=O [present compound 6, 1-(2-{[1-(4-chlorophenyl)-1H-pyrazol-3-yl]oxymethyl}-pyridin-3-yl)-4-methyl-1,4-dihydrotetrazol-5-one]
area of lesion on treated plant relative to that on an untreated plant [3]: ≤ 30%

COc1ccccc1-n1ccc(OCc2c(-n3nnn(C)c3=O)cnn2C(C)(C)C)n1 [present compound 12, 1-(1-tert-butyl-5-{[1-(2-methoxyphenyl)-1H-pyrazol-3-yl]oxymethyl}-1H-pyrazol-4-yl)-4-methyl-1,4-dihydrotetrazol-5-one]
area of lesion on treated plant relative to that on an untreated plant [4]: ≤ 30%
Control value [5]: ≥ 90%
